Patent publication US20230381172A1, “COMBINATIONS OF BCL-2 INHIBITORS WITH CHEMOTHERAPEUTIC AGENTS” (RECURIUM IP HOLDINGS, LLC, priority 2020, published 2023)

Assays:
[1] = system: MV4-11 cells; experiment: In vitro cell assay, CellTiter-Glo cell viability, MV4-11; assay type: cell-based; details: 20,000 MV4-11 cells, 72 h, CTG; 25 nM Compound 5A, 2,272 nM azacitidine, single agent or combination of both
Procedure: (§1) The cells were incubated with the indicated compound at the indicated concentration as described below. The combination indices (CI) were calculated using formula […]. A and B are the percent cell inhibition by single agent treatment, and AB is the percent cell inhibition by the combination.
(§2) For each cell line, the cell viability was assessed using a CellTiter-Glo® (CTG) assay.

[2] = system: RS4;11 cells; experiment: In vitro cell assay, CellTiter-Glo cell viability, RS4;11; assay type: cell-based; details: 50,000 RS4;11 cells, 72 h, CTG; 5 nM Compound 5A, 1,500 nM azacitidine, single agent or combination of both
Procedure: as §1, §2

[3] = system: HL-60 cells; experiment: In vitro cell assay, CellTiter-Glo cell viability, HL-60; assay type: cell-based, human; details: 10,000 HL-60 cells, 72 h, CTG; 150 nM Compound 5A, 5,000 nM azacitidine, single agent or combination of both
Procedure: as §1, §2

[4] = system: HL-60 cells (human myeloid leukemia cell line); experiment: In vivo efficacy, HL-60 leukemia xenograft model (azacitidine combination, FIG. 5); details: HL-60 s.c. xenograft in mice; Compound 5A 50 mg/kg p.o. qd×19; Azacitidine 2.5 mg/kg i.p. qd 5 days on 2 days off; alone or combined
Procedure: Mice were inoculated with HL-60 cells (human myeloid leukemia cell line) subcutaneously on the right flank with the single cell suspension of 95% viable tumor cells (1×10^7) in 100 μL IMDM Matrigel mixture (1:1 ratio) without serum for the tumor development. The treatment was started when the mean tumor size reached approximately 222 mm^3, with individual tumor size ranging from 185-245 mm^3. Animals were randomly distributed into treatment groups of 10 animals each and dosed with vehicle and indicated compounds at indicated dosage and frequency shown in FIG. 5 and Table 3. In FIG. 5, the top line (indicated with circles) is Vehicle control, the second from the top line (indicated with triangles) is Azacitidine (2.5 mg/kg 5 mL/kg i.p. qd (5 days on, 2 days off,)), the second from the bottom line (indicated with circles) is Compound 5A (50 mg/kg 10 mL/kg p.o. qd×19) and the bottom line (indicated with triangles) is Compound 5A (50 mg/kg p.o. qd×19)+Azacitidine (2.5 mg/kg i.p. qd 5×3 (5 days on 2 days off)). Tumor volumes were evaluated twice per week to calculate tumor volume over time, and mice were weighed twice per week as a surrogate for signs of toxicity. Tumor growth inhibition (TGI) was calculated using the following equation TGI=(1-(Td−T0)/(Cd−C0))×100%. […]

[5] = system: MOLM-13 cells; experiment: In vitro cell assay, CellTiter-Glo cell viability, MOLM-13; assay type: cell-based; details: 20,000 MOLM-13 cells, 72 h, CTG; 5 nM Compound 5A, 1,500 nM azacitidine, single agent or combination of both
Procedure: as §1, §2

[6] = system: DOHH cells (non-Hodgkin's cell line); experiment: In vivo efficacy, DOHH non-Hodgkin's model (bendamustine combination, FIG. 8); details: DOHH s.c. xenograft in mice; Compound 5A 100 mg/kg p.o. qd×13; Bendamustine 25 mg/kg i.v. qd×1; alone or combined
Procedure: Tumor volumes were evaluated twice per week to calculate tumor volume over time, and mice were weighed twice per week as a surrogate for signs of toxicity. Tumor growth inhibition (TGI) was calculated using the following equation TGI=(1−(Td−T0)/(Cd−C0))×100%. Td and Cd are the mean tumor volumes of the treated and control animals, and T0 and C0 are the mean tumor volumes of the treated and control animals at the start of the experiment. The tumor regression was defined as individual tumor volume (TV) decrease (terminal TV compared to initial TV).

[7] = system: KMS-12-BM cells; experiment: In vivo efficacy, KMS-12-BM model (bortezomib combination, FIG. 7); details: KMS-12-BM s.c. xenograft in mice; Compound 5A 50 mg/kg p.o. qd×21; Bortezomib 0.5 mg/kg i.p. BIW; alone or combined
Procedure: Mice were inoculated with KMS-12-BM cells ([…]) subcutaneously on the right flank with the single cell suspension of 95% viable tumor cells (1×10^7) in 100 μL IMDM Matrigel mixture (1:1 ratio) without serum for the tumor development. The treatment was started when the mean tumor size reached approximately 222 mm^3, with individual tumor size ranging from 185-245 mm^3. Animals were randomly distributed into treatment groups of 10 animals each and dosed with vehicle and indicated compounds at indicated dosage and frequency shown in FIG. 7 and Table 3. In FIG. 7, the top line (indicated with diamonds) is Vehicle control, the second from the top line (indicated with squares) is Compound 5A (50 mg/kg), the second from the bottom line (indicated with “x”) is Bortezomib (0.5 mg/kg) and the bottom line ([…]). Tumor volumes were evaluated twice per week to calculate tumor volume over time, and mice were weighed twice per week as a surrogate for signs of toxicity. Tumor growth inhibition (TGI) was calculated using the following equation TGI=(1−(Td−T0)/(Cd−C0))×100%. Td and Cd are the mean tumor volumes of the treated and control animals, and T0 and C0 are the mean tumor volumes of the treated and control animals at the start of the experiment. The tumor regression was defined as individual tumor volume (TV) decrease (terminal TV compared to initial TV).

[8] = system: HL-60 cells (human myeloid leukemia cell line); experiment: In vivo efficacy, HL-60 leukemia xenograft model (cytarabine combination, FIG. 6); details: HL-60 s.c. xenograft in mice; Compound 5A 25 mg/kg p.o. qd×19; Cytarabine 5 mg/kg i.p. qd 5 days on 2 days off; alone or combined
Procedure: Mice were inoculated with HL-60 cells (human myeloid leukemia cell line) subcutaneously on the right flank with the single cell suspension of 95% viable tumor cells (1×10^7) in 100 μL IMDM Matrigel mixture (1:1 ratio) without serum for the tumor development. The treatment was started when the mean tumor size reached approximately 218 mm^3, with individual tumor size ranging from 185-245 mm^3. Animals were randomly distributed into treatment groups of 10 animals each and dosed with vehicle and indicated compounds at indicated dosage and frequency shown in FIG. 6 and Table 3. In FIG. 6, the top line (indicated with triangles) is Cytarabine (5.0 mg/kg), the second from the top line (indicated with circles) is Vehicle control, the second from the bottom line (indicated with diamonds) is Compound 5A (25 mg/kg) and the bottom line (indicated with circles) is Compound 5A (25 mg/kg p.o. qd×19)+Cytarabine (5 mg/kg i.p. qd 5×3 (5 days on 2 days off)). Tumor volumes were evaluated twice per week to calculate tumor volume over time, and mice were weighed twice per week as a surrogate for signs of toxicity. Tumor growth inhibition (TGI) was calculated using the following equation TGI=(1−(Td−T0)/(Cd−C0))×100%. Td and Cd are the mean tumor volumes of the treated and control animals, and TO and CO are the mean tumor volumes of the treated and control animals at the start of the experiment. […]

## Nc1ncn([C@@H]2O[C@H](CO)[C@@H](O)[C@H]2O)c(=O)n1 [Azacitidine, azacitidine]
[1]
  MV4;11 % inhibition: 82.9%
[2]
  RS4;11 % inhibition: 32.5%
[3]
  HL60 % inhibition: 21.6%
[4]
  TGI % Day 18: 11%
[5]
  MOLM-13 % inhibition: 47.0%

## Cn1c(CCCC(=O)O)nc2cc(N(CCCl)CCCl)ccc21 [Bendamustine]
[6]
  TGI % Day 26: 44%

## CC(C)C[C@H](NC(=O)[C@H](Cc1ccccc1)NC(=O)c1cnccn1)B(O)O [Bortezomib, bortezomib]
[7]
  TGI % Day 14: 46%

## Nc1ccn([C@@H]2O[C@H](CO)[C@@H](O)[C@@H]2O)c(=O)n1 [Cytarabine]
[8]
  TGI % Day 18: −6%
